Assay [1] relates to HeLa cells transfected with YFP-parkin. Nature of the assay: TMRM fluorescence (mitochondrial membrane potential). Format: cell-based. The procedure:
For assessing tetramethylrhodamine methyl ester perchlorate (TMRM) fluorescence, cell media was removed and replaced with cell media consisting of 5 nM TMRM (ThermoFisher) and 10 μg/ml Hoechst 33258 stain for 30 mins in the dark at 37° C. to allow incorporation of TMRM into mitochondria. Following PBS washes, FluoroBrite DMEM (Gibco) media was added to cells, followed by subsequent imaging using a Zeiss LSM800 microscope at 37° C. with 5% CO2.

In assay [2] the test system is Ub Ser65 phosphorylation. Nature of the assay: Immunofluorescence for Ub Ser65 phosphorylation in YFP-parkin transfected HeLa cells. The class given is cell-based. The protocol:
(§1) Cells were seeded on PerkinElmer PhenoPlate 96-well plates, followed by treatment with compounds. Cells were fixed in chilled 4% PFA for 10 min followed by washes in PBS. […] Following PBS washes, cells were blocked using blocking buffer (PBS, 5% BSA, 0.1% Tween20) for 1 h at room temperature. Primary antibodies were diluted in blocking buffer and added to cells to be incubated overnight at 4° C. Cells were subsequently washed with PBS-T and the appropriate secondary antibodies (diluted in blocking buffer) were added for 2 h at room temperature in darkness. 10 μg/ml of Hoechst 33258 stain was added with secondary antibodies when required. Cells were again washed with PBS-T followed by addition of PBS with 0.02% sodium azide. Cells were then stored at 4° C. until ready for imaging. Primary antibodies used for immunofluorescence are as follows: Phospho-Ub Ser 65 (Sigma-Aldrich cat #ABS1513-1), TOM20 (Santa-Cruz cat #sc-17764). Secondary antibodies and stains used in immunofluorescence; Anti-IgG2a Alexa Fluor™ 546 (ThermoFisher cat #A21133) Anti-rabbit Alexa Fluor™ 647 (ThermoFisher cat #A21244), Hoechst 33258 stain (Sigma-Aldrich cat #B2883).
(§2) Confocal microscopy was performed using a Zeiss LSM800 w/Airyscan fluorescent microscope equipped with lasers emitting at 405 nm, 488 nm, 561 nm and 640 nm. All images were captured using a 40x oil immersion objective lens and processed using Zeiss ZEN software. Images were analysed and quantified using Columbus (PerkinElmer) and TIBCO Spotfire software.
(§3) First, HeLa cells transfected with YFP-parkin were either left untreated or treated with 50 μM kinetin riboside, nucleosides 9a and 9c for 24 h.

For assay [3], the system named is Ub Ser65 phosphorylation. Nature of the assay: Phospho-Ub (Ub Ser65) immunoblotting in parkin- or YFP-parkin-transfected HeLa cells. Format: cell-based. The following applies: immunoblot; for ubiquitin phosphorylation, niclosamide or CCCP only (controls): YFP-parkin HeLa cells, 10 μM, 1 h; for phosphorylation of Ub at Ser65, niclosamide or CCCP treatment alone (controls): 10 μM CCCP 3 h. The procedure: (§4) Both HeLa and parkin-overexpressed HeLa cells were maintained in DMEM high glucose (Gibco), 10% FBS (Sigma-Aldrich) at 37° C. with 5% CO2. For experiments, cells were counted and seeded into a range of culture plates, depending on the experiment, cell counting was done using the Cellometer Auto T4 with TrypanBlue (Gibco). […] Alternatively, HeLa cells were seeded in well plates and then transfected with […] of parkin cDNA using the PEI method once the plated cells reached 60% confluency. After 6 hours, the media was changed. Sub-culturing was done when the cells reached ˜90% confluency.
(§5) Cell culture with 70-80% confluency was lysed as follows: cells were washed with Phosphate Buffer Saline (PBS) (Sigma). 150 μl of lysis buffer was used on each well containing either: • 50 mM Tris-HCl pH 7.5, 1 mM EDTA, 1 mM EGTA, 0.27 M sucrose, 1 mM Na3VO4, 50 mM NaF, 5 mM Na pyrophosphate and fresh 1 mM benzamidine, 1% NP-40 and […]; or • 50 mM Tris-HCl pH 7.5, 1 mM EDTA, 1 mM EGTA, 10 mM Na β-glycerophosphate, 0.27 M sucrose, 1 mM Na3VO4, 50 mM NaF, 10 mM Na pyrophosphate with fresh 1 mM benzamidine, 1% Triton X-100, complete EDTA-free Protease Inhibitor, Phosphatase inhibitor cocktail 3 and 100 μM of 2-chloroacetamide.
(§6) The cells were scrapped and transferred to the microtube and eventually spun down at 12,000 rpm for 15 minutes at 4° C. Finally, the supernatant was transferred to the new microtubes and stored at −20° C. Protein concentration was measured using Bradford Assay. Serial concentrations 0.125; 0.25; 0.5 and 1 mg/ml of Bovine Serum Albumin (BSA) (Sigma Aldrich) were used as a standard. Samples were boiled at 90° C. for 5 minutes in SDS sample loading buffer.
The next day membranes were washed in TBST and incubated with horse radish peroxidase (HRP)-conjugated antibodies for 1 h at room temperature with agitation. Following TBST washes, proteins were visualised using Amersham™ ECL™ Prime kit (GE Biosciences) and imaged using the Bio-rad ChemicDoc. Primary antibodies used for western blotting; GAPDH (Abcam cat #ab9485), Phospho-Ub Ser 65 (Sigma-Aldrich cat #ABS1513-1), LC3B (Cell Signaling cat #3868S). Secondary antibodies used for western blotting; anti-rabbit HRP (Agilent Dako cat #P0399), anti-mouse HRP (Agilent Dako cat #P0260).
(§7) To explore this, we first treated parkin-transfected HeLa cells for 24 h with 50 μM kinetin, kinetin riboside or kinetin riboside ProTide, a monophosphate prodrug of kinetin riboside.

A further assay relates to OPA1. Nature of the assay: OPA1 cleavage immunoblot (mitochondrial membrane depolarization) in parkin-transfected HeLa cells. The class given is cell-based. To be noted: 10 μM CCCP 3 h. The protocol: as §4, §5, §6, §7
Background: Immunoblotting shows a protein as a band on a membrane.

Assay [4] has as its system ubiquitin Ser65 phosphorylation. Nature of the assay: Ubiquitin Ser65 phosphorylation in astrocytes with or without valinomycin. Format: cell-based. The following applies: for ubiquitin Ser65 phosphorylation after pre-treatment followed by valinomycin, compared to valinomycin alone: 50 μM 24 h, 50 nM valinomycin for 5 h; for ubiquitin Ser65 phosphorylation, compound alone: 50 μM, 24 h. The procedure:
Briefly, astrocytes were treated with 50 μM of the nucleobase kinetin, nucleosides 9a and 9c or DMSO for 24 h and 5 h prior to lysis, the samples were treated with 50 nM valinomycin, a mitochondrial uncoupler.

In assay [5] the target is T1, PINK1 (Homo sapiens, UniProt Q9BXM7).
T1 construct: HeLa cells, which express PINK1 endogenously; endogenous in cells; host or cells: HeLa cells transiently transfected with parkin
T1 sequence (Q9BXM7 78-581): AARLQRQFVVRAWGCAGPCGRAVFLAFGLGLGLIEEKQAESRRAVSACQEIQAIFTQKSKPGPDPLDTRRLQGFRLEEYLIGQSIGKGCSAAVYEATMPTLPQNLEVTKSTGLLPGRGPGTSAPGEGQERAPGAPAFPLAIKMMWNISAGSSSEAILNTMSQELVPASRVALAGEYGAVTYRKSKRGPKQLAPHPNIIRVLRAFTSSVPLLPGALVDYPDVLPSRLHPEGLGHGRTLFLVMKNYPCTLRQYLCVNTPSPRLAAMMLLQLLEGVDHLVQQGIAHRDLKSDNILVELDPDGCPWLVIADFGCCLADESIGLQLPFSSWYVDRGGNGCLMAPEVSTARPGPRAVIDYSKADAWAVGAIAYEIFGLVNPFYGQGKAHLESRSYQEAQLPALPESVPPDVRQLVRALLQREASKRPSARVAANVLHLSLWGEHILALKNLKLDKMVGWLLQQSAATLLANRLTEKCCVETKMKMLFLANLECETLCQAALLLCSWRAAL
The following applies: in presence of the de-polarizing agent CCCP; cited from earlier work.

Assay [6] concerns immortalised MEF expressing PINK1 wild-type (WT). Nature of the assay: MitoQC mitophagy assay, MEF expressing PINK1 wild-type. Format: cell-based. The following applies: 20 μM CCCP, 24 h. The text has this: (§8) With the inhibition of ubiquitin phosphorylation and parkin localisation to the mitochondria by kinetin riboside and the nucleoside analogue 9c, we next asked whether these compounds still induce mitophagy in a PINK1 dependent manner. To explore this, we employed the established MitoQC assay for measuring mitophagy in cells^11,12.

The test system of the next assay is PINK1 KO MEFs. Nature of the assay: MitoQC mitophagy assay, PINK1 knock-out MEF. The class given is cell-based. The following applies: 20 μM CCCP, 24 h.
Source text: as §8

In assay [7] the test system is HeLa cells transfected with YFP-parkin. Nature of the assay: Immunofluorescence for YFP-parkin localisation and TOM20 (mitochondrial fragmentation). The class given is cell-based. The procedure:
as §1, §2, §3

For assay [8], the target named is T1, PINK1. Nature of the assay: PINK1 activation in cells judged by parkin Ser65 phosphorylation (parkin-transfected HeLa cells). Format: cell-based. To be noted: 50 μM, 1 h. The protocol:
as §4, §5, §6

[9] abbreviates: 50 μM, 24 h, no niclosamide or CCCP.

Consider five compounds from patent US20260014184A1, “ADENOSINE DERIVATIVES FOR USE IN THE TREATMENT OF NEURODEGENERATIVE DISORDERS AND CANCER” (UNIVERSITY COLLEGE CARDIFF CONSULTANTS LIMITED, priority 2022, published 2026).

“Also recorded” adds a separate entry of the source. Like-named read-outs stand apart in the source and are kept apart here.

On to `O=C(Nc1ccc([N+](=O)[O-])cc1Cl)c1cc(Cl)ccc1O` [niclosamide, reference compound], for which the “mitochondrial membrane potential, niclosamide or CCCP” value in assay [1] (10 μM, data not shown) was “membrane potential collapse”. For the same compound, the “phosphorylation of ubiquitin, niclosamide or CCCP alone” value with Ub Ser65 phosphorylation [2] (YFP-parkin HeLa cells, 10 μM, 1 h, immunofluorescence) is given as “induced significant phosphorylation of ubiquitin”. In addition, the “ubiquitin phosphorylation, niclosamide or CCCP only (controls)” value in the assay on Ub Ser65 phosphorylation [3] is given as “induced strong ubiquitin phosphorylation”. For the same compound, the “phosphorylation of Ub at Ser65, niclosamide or CCCP treatment alone (controls)” value with Ub Ser65 phosphorylation [3] (parkin-transfected HeLa cells) was “strong phosphorylation of Ub at Ser65”. Besides, in the assay on OPA1, the “OPA1 cleavage (mitochondrial membrane depolarization), niclosamide or CCCP alone” value is reported as “led to OPA1 cleavage”.
Consider `c1coc(CNc2ncnc3[nH]cnc23)c1` [kinetin, reference compound], for which the “inhibition of CCCP-induced phosphorylation of ubiquitin by pre-treatment” value in the assay on Ub Ser65 phosphorylation [3] (parkin-transfected HeLa cells, 50 μM 24 h, then 10 μM CCCP 3 h) is reported as “did not”. Further, in the assay with Ub Ser65 phosphorylation [3] (parkin-transfected HeLa cells, 50 μM, 24 h, no CCCP), the “phosphorylation of ubiquitin (Ub Ser65), compound alone” value was “did not lead to any notable phosphorylation of ubiquitin”. In assay [4], the “ubiquitin Ser65 phosphorylation after pre-treatment followed by valinomycin, compared to valinomycin alone” value was “significant suppression of ubiquitin Ser65 phosphorylation” and the “ubiquitin Ser65 phosphorylation, compound alone” value is “increased phosphorylation”. Further, the “PINK1 activation in cells exposed to CCCP” value at PINK1 [5] is “enhanced PINK1 activation”.
“carbonyl cyanide m-chlorophenyl-hydrazine [CCCP, reference compound]”: in assay [6], the “mitophagy in PINK1 WT MEFs, CCCP” value is on record as “induced an increase in mitophagy”. Further, in assay [1], the “mitochondrial membrane potential, niclosamide or CCCP” value was “membrane potential collapse”. For the same compound, in the assay on Ub Ser65 phosphorylation [2], the “phosphorylation of ubiquitin, niclosamide or CCCP alone” value is “induced significant phosphorylation of ubiquitin; also recorded: induced strong ubiquitin phosphorylation”. Further, the “mitophagy in PINK1 KO MEFs, CCCP” value in the assay on PINK1 KO MEFs is recorded as “not in PINK1 KO MEFs”. Besides, in the assay on Ub Ser65 phosphorylation [3], the “ubiquitin phosphorylation, niclosamide or CCCP only (controls)” value is recorded as “induced strong ubiquitin phosphorylation”. Moreover, the “phosphorylation of Ub at Ser65, niclosamide or CCCP treatment alone (controls)” value in the assay with Ub Ser65 phosphorylation [3] (parkin-transfected HeLa cells) is “strong phosphorylation of Ub at Ser65”. The “parkin localisation to the mitochondria, CCCP treatment alone” value in [7] (10 μM CCCP) is reported as “promoted parkin localisation to the mitochondria”. Further, the “OPA1 cleavage (mitochondrial membrane depolarization), niclosamide or CCCP alone” value in the assay on OPA1 is reported as “led to OPA1 cleavage; also recorded: associated with cleavage of OPA1”.
With `CC(C)(C)CNc1ncnc2c1ncn2[C@@H]1O[C@H](CO)[C@@H](O)[C@H]1O` [9f, (2R3S,4R,5R)-2-(hydroxymethyl)-5-(6-(neopentylamino)-9K-purin-9-yl)tetrahydrofuran-3,4-diol], the “activation of PINK1 as judged by parkin Ser65 phosphorylation” value at PINK1 [8] is listed as “exhibited pronounced activation of PINK1 apart from compound 9f”.
For the compound `CNc1ncnc2c1ncn2[C@@H]1O[C@H](CO)[C@@H](O)[C@H]1O` [9a, (2R,3S,4R,5R)-2-(hydroxymethyl)-5-(6-(methylamino)-9H-purin-9-yl)tetrahydrofuran-3,4-diol], the “ubiquitin Ser65 phosphorylation after pre-treatment followed by CCCP, compared to CCCP alone” value with Ub Ser65 phosphorylation [2] (50 μM 24 h, then 10 μM CCCP, immunofluorescence) is reported as “did not have a significant impact”. The “impact on ubiquitin phosphorylation, compound alone” value in the assay with Ub Ser65 phosphorylation [2] (50 μM, 24 h, no niclosamide or CCCP, immunofluorescence) was “did not have any impact”. Also, in [4], the “ubiquitin Ser65 phosphorylation after pre-treatment followed by valinomycin, compared to valinomycin alone” value was “significant suppression of ubiquitin Ser65 phosphorylation” and the “ubiquitin Ser65 phosphorylation, compound alone” value is on record as “increased phosphorylation”. In [7] (50 μM 24 h, then 10 μM CCCP), the “parkin localisation to the mitochondria after pre-treatment followed by CCCP, compared to CCCP alone” value is “did not have a significant impact”. Further, in [7] (setting [9]), the “impact on mitochondrial fragmentation (TOM20), compound alone” value is recorded as “did not have any impact” and the “impact on parkin localisation, compound alone” value is “did not have any impact”.
